Earlier results as cited in patent publication US11413265B2, “Formulations and compositions of Cabazitaxel” (Zhuhai Beihai Biotech Co., Ltd., priority 2018, dated 2022).

What was measured:
[1] = biological target: human serum albumin (Homo sapiens, UniProt P02768); settings: in vitro
[2] = tested on: human serum proteins; settings: in vitro

human serum albumin, sequence (P02768 25-609): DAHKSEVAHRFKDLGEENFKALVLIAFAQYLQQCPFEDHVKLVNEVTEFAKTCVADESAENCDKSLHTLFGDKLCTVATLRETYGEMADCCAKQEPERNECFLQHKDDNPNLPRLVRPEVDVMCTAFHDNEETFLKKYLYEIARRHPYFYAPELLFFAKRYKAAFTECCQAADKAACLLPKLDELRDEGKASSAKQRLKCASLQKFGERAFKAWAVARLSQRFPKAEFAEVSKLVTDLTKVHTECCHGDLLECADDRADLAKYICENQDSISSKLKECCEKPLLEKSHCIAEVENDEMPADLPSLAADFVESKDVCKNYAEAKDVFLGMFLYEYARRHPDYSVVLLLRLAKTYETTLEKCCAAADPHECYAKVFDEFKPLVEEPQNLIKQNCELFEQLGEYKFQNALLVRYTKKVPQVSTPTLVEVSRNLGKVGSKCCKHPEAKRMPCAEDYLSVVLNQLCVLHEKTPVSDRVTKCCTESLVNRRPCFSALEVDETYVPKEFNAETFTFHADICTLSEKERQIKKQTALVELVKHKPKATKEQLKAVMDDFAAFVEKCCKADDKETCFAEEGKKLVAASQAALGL

**Q.** Which “bound to human serum albumin” value [1] does the source give for CO[C@H]1C(=O)[C@]2(C)[C@@H](OC)C[C@H]3OC[C@@]3(OC(C)=O)[C@H]2[C@H](OC(=O)c2ccccc2)[C@]2(O)C[C@H](OC(=O)[C@H](O)[C@@H](NC(=O)OC(C)(C)C)c3ccccc3)C(C)=C1C2(C)C [Cabazitaxel, cabazitaxel] here?
**A.** The value was 82%.

**Q.** And the “concentration up to which binding to human serum proteins was not saturable” value [2]?
**A.** Its value is > 50,000 ng/mL.

**Q.** What about the solubility in alcohol (alcohol) of the same compound?
**A.** The solubility in alcohol was “soluble”.

**Q.** What about the solubility in water (water) of the same compound?
**A.** Its solubility in water is “practically insoluble”.
